Laboratory results from patent US20220288148A1, “METHODS FOR RELIEVING BACK PAIN WITH TERMINALIA CHEBULA COMPOSITIONS” (Natreon, Inc., priority 2021, published 2022).

What was measured:
[1] = test system: low back pain; test: Case reports of human subjects with low back pain (Examples 2-5); type: in vivo; conditions: before AyuFlex
Method: Several human subjects suffering from back pain were administered an effective amount of a T. chebula composition according to the present invention (AyuFlex®, an aqueous extract of T. chebula fruit in powdered and standardized form, orally administered in a capsule containing 500 mg of the extract). […] Subject weights ranged from 54.5 kg to 72.7 kg, and daily doses ranged from 500 mg to 2000 mg per day of AyuFlex®, which may be calculated at a dose range of about 6.88 mg AyuFlex®/kg body weight of a subject to about 36.7 mg AyuFlex®/kg body weight of a subject.
Prior to administration of AyuFlex®, the subject reported a history of suffering from chronic low back pain, described by the subject as sciatic pain, as well as from patellar tendonitis, for the past ten years. The subject indicated their belief that the low back pain was due to a very active lifestyle that included lifting heavy weights. They previously attempted to relieve the chronic low back pain with numerous rounds of physical therapy and rehab-based regimens, but was only provided with temporary relief until they resumed exercise.
The subject began oral administration of 2 (two) 500 mg AyuFlex® capsules daily to treat their low back pain.
Prior to administration of AyuFlex®, the subject reported a history of back pain described by the subject as sciatic pain, beginning when they were young. They were a gymnast for many years, and as a result injured their back. They were diagnosed with small compression fractures and disk bulges in their lower back. Throughout their teen years, the subject underwent intermittent physical therapy, and also sought treatment from a chiropractor for two years. Although the subject reported some temporary relief from these treatments, their pain was not resolved.
The subject further reported that, due to lack of exercise over the years, their sciatic pain became extremely severe. […] Within a month of the onset of these severe symptoms, the subject described having only one or two days where […] was pain-free. […] reported relying heavily on acetaminophen (Tylenol®) and ibuprofen (Advil®) to ease their pain, as they were often not able to sleep due to the sharp sciatic pain. […] Along with the sciatic pain, for a few months before beginning administration of Ayuflex®, the subject reported experiencing stiffness in […] lower back as well. […] reported needing to bend their back to walk for a few minutes after they would stand.
The subject began oral administration of Ayuflex®, taking a 500 mg capsule twice daily for about 2 months, and then recently chose to increase the dosage to 1000 mg (2 capsules) twice daily. […]

[2] = test system: collagen-induced arthritis; conditions: mice with collagen-induced arthritis; cited from earlier work
[3] = test system: subjects with hyperuricemia; conditions: cited from earlier work

## CC(=O)Nc1ccc(O)cc1 [acetaminophen]
[1]; Example 3 subject
  subject-reported pain relief by prior analgesics: only relieved their pain for a few hours
[1]; Example 5 subject
  subject-reported pain relief by prior analgesics: only relieved the pain for a few hours

## O=C(O)C[C@@H]1C(=O)O[C@H]2[C@H](OC(=O)c3cc(O)c(O)c(O)c3)[C@@H](OC(=O)c3cc(O)c(O)c4c3[C@H]1[C@H](O)C(=O)O4)[C@H](OC(=O)c1cc(O)c(O)c(O)c1)O[C@@H]2COC(=O)c1cc(O)c(O)c(O)c1 [chebulinic acid]
[2]
  conclusion on anti-VEGF antiangiogenic action for inflammatory arthritis: safe and potent anti-VEGF antiangiogenic agent

## Cc1nc(-c2ccc(OCC(C)C)c(C#N)c2)sc1C(=O)O [febuxostat]
[3]; as early as 4 weeks, T. bellerica 500 and 250 mg BID, febuxostat 40 mg, T. chebula 500 mg BID
  reduction in mean serum uric acid levels compared to baseline: Significant reduction
[3]; baseline, T. bellerica 500 mg BID, febuxostat 40 mg once daily, in mg/dL (unit assumed)
  serum uric acid levels, baseline: 8.53±0.97
[3]; end of 24 weeks, T. bellerica 500 mg BID, febuxostat 40 mg once daily, in mg/dL (unit assumed)
  serum uric acid levels at the end of 24 weeks: 4.28±0.67

## CC(C)Cc1ccc(C(C)C(=O)O)cc1 (centres unmarked) [ibuprofen]
[1]; Example 3 subject
  subject-reported pain relief by prior analgesics: only relieved their pain for a few hours
[1]; Example 5 subject
  subject-reported pain relief by prior analgesics: only relieved the pain for a few hours
